Literature values in patent publication US20010022980A1, “Dietary supplement for individuals under stress” (Beth Israel Deaconess Medical Center, priority 1998, published 2001).

Experiments:
inflammation = settings: rats
[1] = soldiers, 24 g in a sports bar
[2] = 20 g per day for five days, 3 g daily for remaining 9 weeks; weight training
[3] = 2 to 5 g per day
[4] = males and females; 20 g per day
PCr = settings: athletes; about 20 g during exercise
tetanus toxoid = settings: given during 14 days of training (glutamine 14 g)
explicit memory = settings: college students; 25 grams; 90 minutes after ingestion

Compound: CCCCC/C=C\C/C=C\C/C=C\CCCCC(=O)O [GLA, γ-linoleic acid]
- cellular phase of inflammation (polymorphonuclear leukocyte accumulation, phagocytosis, and lysosomal enzyme activity) (inflammation): suppressed

Compound: CN(CC(=O)O)C(=N)N.O [creatine monohydrate]
- increase in body mass [1]: 1.5 kg
- increase in total repetitions over five sets of bench presses [1]: 14.4%
- reduction of time to complete an obstacle course ([1]; not significant): 7.6 ± 8.2 s
- decrease in body fat ([1]; p <0.05): 0.6%
- increase in fat free mass [2]: 4.4%
- increase in intracellular water [2]: 3.2%
- increase in total body water [2]: 5%
- strength (bench press and squat exercises) [2]: significant increase

Compound: CN(CC(=O)O)C(=N)N [creatine]
- muscle creatine content [3]: increases
- blood pressure [4]: no change
- body fat [4]: no change
- lean body mass determined by DEXA [4]: increased
- plasma creatine kinase [4]: no change
- resynthesis of PCr after exercise (PCr): rapid resynthesis

Compound: NC(=O)CC[C@H](N)C(=O)O [glutamine]
- percentage of soldiers who had an induration >10 mm in response to tetanus toxoid (tetanus toxoid): 50%

Compound: NCC(=O)O [glycine, reference compound]
- percentage of soldiers who had an induration >10 mm in response to tetanus toxoid (tetanus toxoid): 30%

Compound: phosphatidylcholine
- explicit memory (serial learning task) (explicit memory): improve explicit memory
